Reference: patent publication US12110294B2, “CD73 compounds” (Gilead Sciences, Inc., priority 2020, dated 2024)

Target: T1, CD73 activity in MDA-MB-231-GFP cells (Homo sapiens, UniProt P21589)
T1 construct: endogenous in cells; host or cells: MDA-MB-231-GFP cells
T1 sequence (P21589 27-549): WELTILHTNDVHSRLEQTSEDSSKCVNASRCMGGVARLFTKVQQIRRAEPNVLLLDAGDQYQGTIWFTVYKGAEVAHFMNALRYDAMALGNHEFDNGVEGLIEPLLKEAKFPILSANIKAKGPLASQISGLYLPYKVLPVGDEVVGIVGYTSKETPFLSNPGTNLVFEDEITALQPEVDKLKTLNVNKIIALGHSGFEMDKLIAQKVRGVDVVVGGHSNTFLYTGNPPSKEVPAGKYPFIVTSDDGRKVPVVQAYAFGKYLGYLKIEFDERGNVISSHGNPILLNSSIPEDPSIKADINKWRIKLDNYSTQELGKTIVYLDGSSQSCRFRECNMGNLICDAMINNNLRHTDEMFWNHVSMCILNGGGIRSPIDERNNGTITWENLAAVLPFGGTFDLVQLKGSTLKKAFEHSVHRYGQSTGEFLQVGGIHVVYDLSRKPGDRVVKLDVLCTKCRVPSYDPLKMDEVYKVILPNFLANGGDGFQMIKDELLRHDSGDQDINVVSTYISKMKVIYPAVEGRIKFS
Experiment: MDA-MB-231 Cell Based CD73 Activity Assay (DMEM)
Conditions: 3000 cells per well, DMEM medium with 10% human plasma, overnight compound treatment, AMP 200 uM
Procedure: MDA-MB-231 Cell Based CD73 Activity Assay (DMEM) MDA-MB-231-GFP cells were seeded in 384-well plates (Greiner 781946) at a density of 3000 cells per well in 50 μL of DMEM medium with 10% HP (human plasma). Cells were plated into assay plate with compounds pre-spotted, for an overnight compound treatment. 50 uL of 400 uM AMP (final concentration will be 200 uM) was added using Bio-tek dispenser. Plates were incubated for 100 mins. […] The samples were analyzed using Rapid fire.

O=C(c1ccc([C@H]2C[C@@H]2c2cc(-c3c[nH]c(=O)[nH]c3=O)nn3ccnc23)cc1)N1CCC(F)(F)C1 (racemic) [Example 305, 5-(8-((2S,2S)-2-(4-(3,3-difluoropyrrolidine-1-carbonyl)phenyl)cyclopropyl)imidazo[1,2-b]pyridazin-6-yl)pyrimidine-2,4(1H,3H)-dione]
EC50: 21.2 nM

O=c1[nH]cc(-c2cc([C@H]3C[C@@H]3c3ccc4cnccc4c3)c3nccn3n2)c(=O)[nH]1 (racemic) [Example 156, 5-(8-((1S,2S)-2-(isoquinolin-6-yl)cyclopropyl)imidazo[1,2-b]pyridazin-6-yl)pyrimidine-2,4(1H,3H)-dione]
EC50: 1.87 nM

O=C(c1cccc([C@H]2C[C@@H]2c2cc(-c3c[nH]c(=O)[nH]c3=O)nn3ccnc23)c1)N1CCC(F)(F)C1 (racemic) [Example 306, 5-(8-((2S,2S)-2-(3-(3,3-difluoropyrrolidine-1-carbonyl)phenyl)cyclopropyl)imidazo[1,2-b]pyridazin-6-yl)pyrimidine-2,4(1H,3H)-dione]
EC50: 1.41 nM

CN(C)C(=O)c1cccc([C@H]2C[C@@H]2c2cc(-c3c[nH]c(=O)[nH]c3=O)nn3ccnc23)c1 (racemic) [Example 287, 3-((2S,2S)-2-(6-(2,4-dioxo-1,2,3,4-tetrahydropyrimidin-5-yl)imidazo[1,2-b]pyridazin-8-yl)cyclopropyl)-N,N-dimethylbenzamide]
EC50: 12.5 nM

CC1(C)C(=O)N(CC(F)(F)F)c2cc([C@H]3C[C@@H]3c3cc(-c4c[nH]c(=O)[nH]c4=O)nn4ccnc34)ncc21 (racemic) [Example 718, 5-[8-[(1S,2S)-2-[3,3-dimethyl-2-oxo-1-(2,2,2-trifluoroethyl)pyrrolo[3,2-c]pyridin-6-yl]cyclopropyl]imidazo[1,2-b]pyridazin-6-yl]-1H-pyrimidine-2,4-dione]
EC50: 0.33 nM

O=c1[nH]cc(-c2cc([C@H]3C[C@@H]3c3cc4c(cn3)cnn4CC(F)(F)F)c3ncc(F)n3n2)c(=O)[nH]1 [Example 611, 5-(3-fluoro-8-((2S,2S)-2-(1-(2,2,2-trifluoroethyl)-1H-pyrazolo[4,3-c]pyridin-6-yl)cyclopropyl)imidazo[1,2-b]pyridazin-6-yl)pyrimidine-2,4(1H,3H)-dione]
EC50: 0.07 nM

O=C(c1ccc([C@H]2C[C@@H]2c2cc(-c3c[nH]c(=O)[nH]c3=O)nn3ccnc23)cc1)N1CC(F)(F)C(F)(F)C1 (racemic) [Example 303, 5-(8-((1S,2S)-2-(4-(3,3,4,4-tetrafluoropyrrolidine-1-carbonyl)phenyl)cyclopropyl)imidazo[1,2-b]pyridazin-6-yl)pyrimidine-2,4(1H,3H)-dione]
EC50: 27.7 nM

O=c1[nH]cc(-c2cc([C@H]3C[C@@H]3c3ccc(OC(F)(F)F)cn3)c3nccn3n2)c(=O)[nH]1 (racemic) [Example 372, 5-(8-((1S,2S)-2-(5-(trifluoromethoxy)pyridin-2-yl)cyclopropyl)imidazo[1,2-b]pyridazin-6-yl)pyrimidine-2,4(1H,3H)-dione]
EC50: 9.23 nM

N#Cc1cc([C@H]2C[C@@H]2c2cc(-c3c[nH]c(=O)[nH]c3=O)nn3ccnc23)ccc1OC(F)(F)F (racemic) [Example 414, 5-((2S,2S)-2-(6-(2,4-dioxo-1,2,3,4-tetrahydropyrimidin-5-yl)imidazo[1,2-b]pyridazin-8-yl)cyclopropyl)-2-(trifluoromethoxy)benzonitrile]
EC50: 43.8 nM

O=c1[nH]cc(-c2cc([C@H]3C[C@@H]3c3ccc(OC(F)(F)F)cc3F)c3nccn3n2)c(=O)[nH]1 (racemic) [Example 280, 5-(8-((1S,2S)-2-(2-fluoro-4-(trifluoromethoxy)phenyl)cyclopropyl)imidazo[1,2-b]pyridazin-6-yl)pyrimidine-2,4(1H,3H)-dione]
EC50: 77.8 nM

Cc1nc2cc([C@H]3C[C@@H]3c3cc(-c4c[nH]c(=O)[nH]c4=O)nn4ccnc34)ccc2s1 (racemic) [Example 321, 5-(8-((2S,2S)-2-(2-methylbenzo[d]thiazol-5-yl)cyclopropyl)imidazo[1,2-b]pyridazin-6-yl)pyrimidine-2,4(1H,3H)-dione]
EC50: 11.2 nM
